According to US20160046592A1, “PHARMACEUTICAL COMPOSITION FOR THE TREATMENT OF DIABETES” (Ajinomoto Co., Inc., priority 2013, published 2016):
Counter-ions that a name gives are not always drawn.

Target: T1, human GYS1 (glycogen synthase) (Homo sapiens, UniProt P13807)
T1 construct: made in house; host or cells: HEK293T
T1 sequence (P13807 1-737): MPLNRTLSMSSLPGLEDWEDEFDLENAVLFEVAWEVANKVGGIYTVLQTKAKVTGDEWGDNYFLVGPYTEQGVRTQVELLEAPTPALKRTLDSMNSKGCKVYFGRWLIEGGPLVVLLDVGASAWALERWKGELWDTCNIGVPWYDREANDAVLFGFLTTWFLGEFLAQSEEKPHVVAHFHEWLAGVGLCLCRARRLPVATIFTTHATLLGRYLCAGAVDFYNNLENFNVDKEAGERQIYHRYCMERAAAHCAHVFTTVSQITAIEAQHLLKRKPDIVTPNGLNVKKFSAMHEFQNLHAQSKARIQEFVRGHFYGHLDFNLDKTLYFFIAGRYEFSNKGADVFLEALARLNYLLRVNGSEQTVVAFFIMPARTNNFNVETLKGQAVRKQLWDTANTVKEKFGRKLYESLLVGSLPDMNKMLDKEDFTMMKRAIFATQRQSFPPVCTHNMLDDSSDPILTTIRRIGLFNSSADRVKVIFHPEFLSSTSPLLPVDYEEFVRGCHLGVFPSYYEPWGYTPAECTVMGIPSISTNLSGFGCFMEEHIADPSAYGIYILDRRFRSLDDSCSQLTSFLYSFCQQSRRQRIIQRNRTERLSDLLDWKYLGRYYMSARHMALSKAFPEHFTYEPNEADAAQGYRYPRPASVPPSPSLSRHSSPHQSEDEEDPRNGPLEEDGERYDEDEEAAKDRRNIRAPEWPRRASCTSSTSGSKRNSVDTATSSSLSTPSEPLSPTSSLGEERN
Assay: Measurement of glycogen synthase activity
Type: biochemical
Settings: concentration causing 50% increase in relative activity; 100% = compound of Example 1 of WO/2011/058154 at 10 μM; 10 mM Glucose-6-phosphate; 37° C. for 25 minutes (Examples 1 to 61 and 67 to 82) or 20 minutes (Examples 62 to 66); absorbance at 340 nm
How it was run: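 Human GYS1 from transfected HEK293T cells (re-dissolved 16000×g pellet) was reacted at 37 °C for 25 or 20 min in glycylglycine pH 7.3 with glucose-6-phosphate, glycogen and UDP-glucose. PK/LDH-coupled NADH read-out at 340 nm; EC50 from activity relative to a reference activator at 10 μM final (100%).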

Row | EC50 [nM] | SMILES
1 | 17 | COC[C@@H]1CC[C@@H](C(=O)O)N1C(=O)c1cccc(COc2ccc(-c3cc(F)c(F)cc3SC)cc2)c1 [Example 62, (2S,5S)-1-[3-[[4-(4,5-Difluoro-2-methylsulfanyl-phenyl)phenoxy]methyl]benzoyl]-5-(methoxymethyl)pyrrolidine-2-carboxylic Acid]
2 | 17 | CSc1cc(F)c(F)cc1-c1ccc(OCc2cccc(C(=O)N3C[C@H](N(C)C)C[C@H]3C(=O)O)c2)cc1 [Example 63, (2S,4R)-1-[3-[[4-(4,5-Difluoro-2-methylsulfanyl-phenyl)phenoxy]methyl]benzoyl]-4-(dimethylamino)pyrrolidine-2-carboxylic Acid Trifluoroacetate]
